The text below walks through data of ChEMBL document CHEMBL1138443, “Carbonic anhydrase inhibitors. Cloning, characterization, and inhibition studies of a new beta-carbonic anhydrase from Mycobacterium tuberculosis” (J Med Chem, 2009).

The target in the assay is T1, Beta-carbonic anhydrase 1 (Mycobacterium tuberculosis, UniProt P9WPJ7).
T1 sequence (P9WPJ7 whole entry): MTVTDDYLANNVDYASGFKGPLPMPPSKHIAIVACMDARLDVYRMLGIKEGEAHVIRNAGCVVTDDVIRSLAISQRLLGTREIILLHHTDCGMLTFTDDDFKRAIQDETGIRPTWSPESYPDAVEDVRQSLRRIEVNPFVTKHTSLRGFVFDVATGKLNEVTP

In general, Ki refers to the equilibrium dissociation constant of an inhibitor or competing ligand from its target.

The structures appear in SMILES notation.

Consider `CC(=O)/N=c1/sc(S(N)(=O)=O)nn1C` [METHAZOLAMIDE], for which the inhibitory constant (Ki) was 781 nM.
